Some test systems named below: A498 renal; MCF7 breast; UO-31 renal; UACC-257 melanoma; SW-620 colon; OVCAR-8 ovarian; OVCAR-4 ovarian; SK-MEL-5 melanoma; OVCAR-3 ovarian; HCT-116 colon; SK-OV-3 ovarian.
What all share (assay): growth of human tumour cells (NCI), 48 h

Structures are written as SMILES.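 Cells were grown in 96-well plates and exposed to each compound for 48 hours at five concentrations; endpoints were interpolated linearly between bracketing concentrations, or set to the highest concentration if not reached. The concentration for full growth arrest is given as TGI.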 Where a SMILES comes first, the peptide text is derived from it. The star is where a group is joined. Boc = CC(C)(C)OC(=O)*; OSu = O=C1CCC(=O)N1O* Where only a bound is given, the exact number is not on record here.

Take `N#Cc1c(N)[nH]c(=S)c(C#N)c1-c1cccc(Cl)c1`: the TGI in the test with A498 renal, in the test with MCF7 breast, with UO-31 renal, with UACC-257 melanoma, in the test with SW-620 colon and in the test on OVCAR-8 ovarian was > 100 µM in each case. The TGI in the test on OVCAR-4 ovarian is > 100 µM; with SK-MEL-5 melanoma, > 100 µM; with OVCAR-3 ovarian, > 100 µM; in the test with HCT-116 colon it was 60.6 µM.

With `O=C1CC(C(O)CO)CC(=O)N1` (stereo unspecified), the TGI in the test with A498 renal, in the test with MCF7 breast, in the test with UO-31 renal, in the test on UACC-257 melanoma, in the test on SW-620 colon and in the test on OVCAR-8 ovarian was > 100 µM each time. Also, the TGI with SK-MEL-5 melanoma, with OVCAR-3 ovarian and in the test with HCT-116 colon was > 100 µM throughout.

As to `O=C1CC(O)c2c1csc2Br` (stereo unspecified), the TGI in the test on MCF7 breast is 45.7 µM; in the test with SK-OV-3 ovarian, > 100 µM; in the test with UO-31 renal it was 53.3 µM; with UACC-257 melanoma it was 31.4 µM; in the test on SW-620 colon, 37.2 µM; in the test with OVCAR-8 ovarian, 62.4 µM. The TGI in the test on OVCAR-4 ovarian is 96.2 µM; with SK-MEL-5 melanoma it was > 100 µM; in the test with OVCAR-3 ovarian, 64.4 µM; in the test with HCT-116 colon, 49.1 µM.

As to `Cc1c(Cl)ccc2c(=O)c3cccc(CC(=O)O)c3oc12`, the TGI in the test on A498 renal, in the test on MCF7 breast, in the test on UO-31 renal, with UACC-257 melanoma, with SW-620 colon and with OVCAR-8 ovarian was > 100 µM in each case. In addition, the TGI in the test on OVCAR-4 ovarian, in the test with SK-MEL-5 melanoma, in the test on OVCAR-3 ovarian and with HCT-116 colon was > 100 µM throughout.

For `CC(C)(C)OC(=O)NC(Cc1ccc(O)cc1)C(=O)NC(CCCCN)C(=O)NC(Cc1ccc(O)cc1)C(=O)NC(CCCCN)C(=O)ON1C(=O)CCC1=O` (stereo unspecified) (Boc-YKYK-OSu; configuration not given here), the TGI in the test with A498 renal, in the test on MCF7 breast, in the test with UO-31 renal, with UACC-257 melanoma, in the test with SW-620 colon and with OVCAR-8 ovarian was > 100 µM throughout. For the same compound, the TGI in the test on SK-MEL-5 melanoma and with HCT-116 colon was > 100 µM each time.

`C[N+](C)(C)CC(=O)N/N=c1\cc(C(=O)Nc2ccc(N=O)cc2C#N)oc2cc(O)ccc12`: the TGI with A498 renal, in the test with SK-OV-3 ovarian, in the test with UO-31 renal, in the test on UACC-257 melanoma, in the test with SW-620 colon and in the test on OVCAR-8 ovarian was > 100 µM each time. Besides, the TGI with OVCAR-4 ovarian, in the test with SK-MEL-5 melanoma, in the test on OVCAR-3 ovarian and in the test on HCT-116 colon was > 100 µM throughout.

On to `Cc1c(Cl)cccc1NC(=O)C(=O)C1C(=O)CC(C)(C)CC1=O`, for which the TGI with A498 renal, in the test on SK-OV-3 ovarian, in the test with UO-31 renal, in the test on UACC-257 melanoma, in the test on SW-620 colon and in the test on OVCAR-8 ovarian was > 100 µM each time. The TGI in the test with OVCAR-4 ovarian, with SK-MEL-5 melanoma, with OVCAR-3 ovarian and in the test with HCT-116 colon was > 100 µM throughout.

For `CC1C(c2cc(C(C)(C)C)c(O)c(C(C)(C)C)c2)c2cc3c(cc2OC1N1CCOCC1)OCO3` (stereo unspecified), the TGI is > 100 µM in the test on MCF7 breast; 29.8 µM with UO-31 renal; > 100 µM in the test on UACC-257 melanoma; > 100 µM in the test on SW-620 colon; 60 µM in the test with OVCAR-8 ovarian; 47.3 µM in the test on SK-MEL-5 melanoma. The values for the TGI in the test with OVCAR-3 ovarian and in the test on HCT-116 colon were 35 µM and 30.7 µM, respectively.

On to `CC1(C)CC2(C)CC1CC2O` (stereo unspecified), for which the TGI in the test with MCF7 breast, in the test on SK-OV-3 ovarian, with UO-31 renal, in the test on UACC-257 melanoma, in the test with SW-620 colon and in the test on OVCAR-8 ovarian was > 100 µM throughout. Also, the TGI in the test on OVCAR-4 ovarian, with SK-MEL-5 melanoma, in the test on OVCAR-3 ovarian and with HCT-116 colon was > 100 µM throughout.

Turning to `Cc1cc2c(c(C(=O)NCCC(=O)O)c1)Oc1c(cc(C)cc1C(=O)NCCC(=O)O)S2`, the TGI with MCF7 breast, in the test with SK-OV-3 ovarian, with UACC-257 melanoma, in the test on SW-620 colon, in the test with OVCAR-8 ovarian and in the test with OVCAR-4 ovarian was > 100 µM in each case. Moreover, the TGI in the test with OVCAR-3 ovarian and with HCT-116 colon was > 100 µM each time.

As for `COc1cc2c(cc1OCCCCCOc1cc3c(cc1OC)C(=O)N1CCC[C@H]1C(=O)N3)N=C[C@@H]1CCCN1C2=O`, the TGI in the test with A498 renal amounted to 1.1 µM; in the test on MCF7 breast, 0.261 µM; in the test with UACC-257 melanoma it was 0.707 µM; in the test on OVCAR-8 ovarian it was 31.5 µM; in the test on OVCAR-4 ovarian, 0.716 µM; in the test with OVCAR-3 ovarian it was 0.575 µM. The TGI in the test with HCT-116 colon was > 100 µM.

As for `O=C(/C(=C(/Br)I)c1ccccc1)c1ccccc1`, the TGI in the test on A498 renal was 28.7 µM; in the test on MCF7 breast it was 94.4 µM; with SK-OV-3 ovarian, > 100 µM; with UO-31 renal, 41.3 µM; with UACC-257 melanoma, 43.8 µM; with OVCAR-8 ovarian it was 48.3 µM. Further, the TGI in the test with SK-MEL-5 melanoma was determined as 41.8 µM; in the test with OVCAR-3 ovarian, 42 µM; in the test with HCT-116 colon, 31.7 µM.

Take `O=c1[nH]cnc2c(C3OC(CO)C(O)C3O)c[nH]c12` (stereo unspecified): the TGI in the test on MCF7 breast, with SK-OV-3 ovarian, with UO-31 renal, in the test with UACC-257 melanoma, in the test on SW-620 colon and with OVCAR-8 ovarian was > 100 µM throughout. Further, the TGI in the test with OVCAR-4 ovarian, in the test on SK-MEL-5 melanoma, in the test with OVCAR-3 ovarian and in the test on HCT-116 colon was > 100 µM throughout.

Turning to `CCCN=C1CC(C)Nc2ccccc2N1` (stereo unspecified), the TGI in the test on A498 renal, with SK-OV-3 ovarian, with UO-31 renal, with UACC-257 melanoma, in the test with SW-620 colon and in the test on OVCAR-8 ovarian was > 100 µM in each case. The TGI in the test with OVCAR-4 ovarian, in the test on SK-MEL-5 melanoma, with OVCAR-3 ovarian and with HCT-116 colon was > 100 µM in each case.

Take `O=c1[nH]c2nc3ccccc3c(=O)n2/c1=C/c1ccc(O)cc1`: the TGI is > 100 µM in the test with MCF7 breast; > 100 µM in the test with SK-OV-3 ovarian; > 100 µM in the test with UO-31 renal; > 100 µM in the test with UACC-257 melanoma; 56.4 µM with SW-620 colon; 54.8 µM in the test on OVCAR-8 ovarian. The TGI in the test with OVCAR-4 ovarian, in the test on SK-MEL-5 melanoma, in the test with OVCAR-3 ovarian and in the test on HCT-116 colon was > 100 µM in each case.

Consider `O=c1c2c3ccccc3[nH]c2c2cccc3c2n1CCC3`, for which the TGI in the test with A498 renal, in the test on MCF7 breast, in the test on SK-OV-3 ovarian, in the test on UACC-257 melanoma, in the test on SW-620 colon and with OVCAR-8 ovarian was > 100 µM throughout. Further, the TGI was 79.2 µM in the test on SK-MEL-5 melanoma, > 100 µM in the test on OVCAR-3 ovarian and > 100 µM in the test on HCT-116 colon.

As for `[N-]=[N+]=Nc1c(Cl)c(=O)n(-c2ccccc2)c2ccccc12`, the TGI in the test on MCF7 breast was 38.7 µM; in the test with SK-OV-3 ovarian, > 100 µM; with UO-31 renal it was 52.6 µM; in the test on UACC-257 melanoma, 47.1 µM; with SW-620 colon it was 31 µM; with OVCAR-4 ovarian it was 34.7 µM. Besides, the TGI with SK-MEL-5 melanoma is 18.5 µM; in the test on OVCAR-3 ovarian, 39 µM; in the test on HCT-116 colon, 33.4 µM.

Consider `O=c1c2ccccc2[nH]c(=S)n1-c1ccc(N=Nc2cccc3c(O)cccc23)cc1`, for which the TGI in the test on MCF7 breast was 35.2 µM; with SK-OV-3 ovarian, > 100 µM; with UO-31 renal, > 100 µM; in the test on UACC-257 melanoma, > 100 µM; with SW-620 colon it was > 100 µM; in the test on OVCAR-8 ovarian, > 100 µM. The TGI in the test on OVCAR-4 ovarian, in the test on SK-MEL-5 melanoma, in the test on OVCAR-3 ovarian and with HCT-116 colon was > 100 µM in each case.

For the compound `CC(C)C(Sc1nc(-c2ccccc2)c(-c2ccccc2)[nH]1)C(=O)NNC(=S)Nc1ccccc1` (stereo unspecified), the TGI in the test on A498 renal is 44.5 µM; in the test on SK-OV-3 ovarian it was 45.3 µM; in the test on UO-31 renal it was 35.8 µM; in the test with UACC-257 melanoma, 33.5 µM; with SW-620 colon it was 33.1 µM; with OVCAR-8 ovarian, > 100 µM. Moreover, the TGI came out at 79.2 µM in the test on OVCAR-4 ovarian, 25.4 µM with SK-MEL-5 melanoma, 29 µM in the test on OVCAR-3 ovarian and 42.2 µM in the test on HCT-116 colon.

On to `c1ccc(C[P+]2(c3ccccc3)c3ccccc3-c3ccccc32)cc1`, for which the TGI in the test with MCF7 breast, in the test on SK-OV-3 ovarian, with UO-31 renal, with UACC-257 melanoma, in the test with SW-620 colon and in the test on OVCAR-8 ovarian was > 100 µM each time. For the same compound, the TGI in the test on SK-MEL-5 melanoma, in the test with OVCAR-3 ovarian and with HCT-116 colon was > 100 µM throughout.

Take `Cc1cc(-c2nc3ccccc3s2)ccc1NS(=O)(=O)O`: the TGI in the test on A498 renal, in the test with SK-OV-3 ovarian, in the test with UO-31 renal, in the test on UACC-257 melanoma, in the test with SW-620 colon and in the test on OVCAR-8 ovarian was > 100 µM in each case. The TGI in the test on OVCAR-4 ovarian, in the test on SK-MEL-5 melanoma, in the test with OVCAR-3 ovarian and in the test with HCT-116 colon was > 100 µM each time.

The record behind these values is PubChem BioAssay (NCI).
